Values quoted from earlier work in patent US20020151447A1, “Reduced toxicity 1-bromopropane cleaning agent production process” (POLYMER SOLVENTS, INC., priority 1997, published 2002).

Tests used:
[1] = 8 hour workday
mammals = conditions: in vivo

CCCBr [1-bromopropane]
workplace exposure limit for handlers [1]: 100 ppm
toxicity to mammals (mammals): relatively low toxicity
